The values below come from publication PMC3598906 (2013).

Each structure is given as a SMILES string.

In test [1] the test system is ds26 (DNA, duplex) CAATCGGATCGAATTCGATCCGATTG
Briefly: competitive dialysis. The conditions noted are these: potassium phosphate buffer, 50 µM DNA, 1 µM ligand, 24 h, room temperature.

Test [2] deals with HT24 (DNA, G4) TAGGGTTAGGGTTAGGGTTAGGGT
Briefly: competitive dialysis. As to conditions: potassium phosphate buffer; 50 µM DNA, 1 µM ligand, 24 h, room temperature.

Test [3] deals with 24bcl (DNA, G4) CGGGCGCGGGAGGAAGGGGGCGGG
Briefly: competitive dialysis. The conditions noted are these: potassium phosphate buffer; 50 µM DNA, 1 µM ligand, 24 h, room temperature.

The subject of test [4] is cmyc (DNA, G4) GGGGAGGGTGGGGAGGGTGGGGAAGGTGGGG
Briefly: competitive dialysis. As to conditions: potassium phosphate buffer; 50 µM DNA, 1 µM ligand, 24 h, room temperature.

Test [5] deals with ds6 (DNA, duplex) CGATCG. Briefly: fluorescence titration. The conditions noted are these: 185 mM KCl, 185 mM NaCl; pH 7, 25 °C; up to 25 µM DNA, 1 µM ligand; n.d., no change in fluorescence.
Test [6] deals with Htel (DNA, G4) TTAGGG. Briefly: imino proton NMR melting. The conditions noted are these: 150 mM KCl, 25 mM KH2PO4; 1 mM EDTA, pH 6.7; imino signals lost at 45-55 °C free, still observed at 55 °C bound.
In test [7] the test system is Htel (DNA, G4) TTAGGG. Briefly: 1H NMR titration and NOESY. The conditions noted are these: 150 mM KCl, 25 mM KH2PO4, 1 mM EDTA, pH 6.7, 25 °C.
Test [8] has as its system Htel (DNA, G4) TTAGGG. Briefly: fluorescence titration, Equispec fit. The conditions noted are these: 185 mM KCl, 185 mM NaCl; 6 mM Na2HPO4, 2 mM NaH2PO4, 1 mM EDTA, pH 7, 25 °C; macroscopic; 1 µM ligand.
Test [9] relates to ds8 (DNA, duplex) GCGATCGC
Briefly: 1H NMR titration. As to conditions: 70 mM KCl, 10 mM KH2PO4; 0.2 mM EDTA, pH 7.0; line broadening only, no intermolecular NOE; ions stated for other duplexes.

In test [10] the test system is ds6 (DNA, duplex) CGATCG. Briefly: 1H and 31P NMR titration. As to conditions: 70 mM KCl, 10 mM KH2PO4; 0.2 mM EDTA, pH 7.0; [drug]/[DNA] up to 3.

Take `CN1CCN(C(=O)c2ccc3c(NC4CCN(Cc5ccccc5)CC4)c4ccccc4nc3c2)CC1`: the binding entry in test [1] is given as “no”; in [2], “yes”; in [3], “yes”; in test [4] it was “yes”; in test [5], “no”; in [6], “yes”. In [7] (site at T2, A3, G4), the binding entry is given as “yes”. In addition, in test [8], the “Logarithm of the binding constants” value is 4.4 ± 0.1 log (M-1).

Consider `CN1CCN(C(=O)c2cccc3c(NCCc4c[nH]c5ccccc45)c4ccccc4nc23)CC1`, for which the binding entry in [9] is on record as “weak”; in test [1] (NMR suggests outside binding), “yes”; in [2] it was “yes”; in [3] it was “yes”; in test [4] it was “yes”; in test [5], “no”. Moreover, the binding result is “yes” in test [6]; “no” in [10]; “yes” in [7] (intercalates between A3 and G4). Besides, in test [8], the “Logarithm of the binding constants” value was 4.9 ± 0.1 log (M-1).
